Assay results from patent publication US20060211650A1, “Reducing carbohydrate derivatives of adamantane amines, and synthesis and methods of use thereof” (Forest Laboratories, Inc., priority 2004, published 2006).
“And” between values parts separate entries of the source, which are not always exact repeats. Equal entries are not always repeated.

Key:
Experiment in all cases: Disk assay, zone of inhibition
Assay type in all cases: cell-based
[1] = system: Staphylococcus aureus, ATCC #6538
Procedure: (§1) The antibiotic activity of a 1% memantine-lactose adduct solution in saline was assayed using a disk assay against three USP bacteria cultures: Staphylococcus aureus, Pseudomonas aeruginosa and Escherichia coli. A negative control, 0.9% saline disk, and a positive control, 1% gentamicin solution in saline, were included. Antibacterial activity was evaluated by measuring (in mm) the size of any clear zone of no growth (i.e., Zone of Inhibition) around each sample. A “No Zone” is reported when no antibacterial activity is observed. […] These experiments may be predictive of biological effects in humans or other mammals and/or may serve as models for use of the present invention in humans or other mammals for the treatment of infections caused by Gram positive or Gram negative bacteria. See, e.g., Kustimur et al., Chinese Medical Journal, 116(4):633-636 (2003).

[2] = system: Pseudomonas aeruginosa, ATCC #9027; details: 1% solution in saline on disk, Plates 1-3, "No Zone" = no antibacterial activity observed
Procedure: as §1

[3] = system: Escherichia coli, ATCC #8739; details: 1% solution in saline on disk, Plates 1-3, "No Zone" = no antibacterial activity observed
Procedure: as §1

## CC12CC3CC(C)(C1)CC(NCC(=O)[C@@H](O)C(O[C@@H]1O[C@H](CO)[C@@H](O)[C@H](O)[C@H]1O)[C@H](O)CO)(C3)C2 (stereo partly drawn) [Memantine-lactose adduct]
[1]; Staphylococcus aureus, 1% solution in saline, disk assay
  antibacterial activity (result in words): found to have antibacterial activity
[2]
  Zone of Inhibition: No Zone
[3]
  Zone of Inhibition: No Zone

## gentamicin
[1]; Staphylococcus aureus ATCC #6538, 1% solution in saline on disk, Plates 1-3, "No Zone" = no antibacterial activity observed
  Zone of Inhibition: 19.3 mm and 19.1 mm and 15.8 mm
[2]
  Zone of Inhibition: 11.2 mm and 10.9 mm and 9.9 mm
[3]
  Zone of Inhibition: 15.5 mm and 16.8 mm
